Assay results from US20250282818A1, “SYRBACTIN MACROLACTAMS AND UNNATURAL ANALOGS AS PROTEASOME INHIBITORS FOR THE TREATMENT OF MULTIPLE MYELOMA AND CHEMOENZYMATIC SYNTHESIS THEREOF” (UNIVERSITY OF FLORIDA RESEARCH FOUNDATION,INCORPORATED, priority 2022, published 2025).
Entries after “also recorded” stand apart in the source; their conditions may differ.

Assays:
RPMI 8226 cells [1] = assay: RPMI 8226 cytotoxicity EC50 measurements (WST-1); format: cell-based, human; settings: RPMI 8226, 48 hours
Method: (§1) RPMI 8226 cells were seeded in a 96-well plate (20,000 cells/well) in cell culture media supplemented with indicated compounds (1,000× stock in DMSO) or DMSO and cultured for 48 hours. Toxicity was determined using the WST-1 assay (Roche) according to the protocol of the manufacturer. (n=3)
as §1, with “Cytotoxicity of phenyl cepafungin (50) and hybrid analog (S39) in RPMI 8226 RPMI” for “RPMI”

proteasome subunit β5 = target: T1, proteasome subunit β5 (Homo sapiens, UniProt P28074); assay: Proteasome inhibition IC50 measurements in RPMI 8226 cells, substrate Suc-LLVY-AMC (β5); format: cell-based; settings: β5, RPMI 8226 cells
T1 construct: Cells were then collected and lysed; endogenous in cells; host or cells: RPMI 8226
Text: Our preliminary series of analogs (FIG. 3), including the natural product glidobactin A (2), were synthesized by largely the same route (FIG. 2).^13 Desoxycepafungin (38) was synthesized from Boc-Lys(Boc)-OH to assess the role of the macrocycle hydroxylation in 1 towards proteasome inhibition. The saturated cepafungin analog 39 was designed to address the possible role of rigidity in the tail fragment induced by the diene seen in many natural cepafungins and glidobactins. An analog bearing unsaturation at its macrocyclic lysine was envisioned to provide a head-to-head comparison between the cepafungin and syringolin A (4) macrocyclic core. […] Proteasome subunit β5 IC50 values were determined in situ in RPMI 8226 cells (FIG. 3). In close agreement with prior measurement of β5 IC50 for natural 1 and 2 in purified yeast proteasome,^8 in our hands the additional branching methyl in 1 indeed leads to ca. 5-fold improved IC50 compared to 2 in RPMI 8226 cells. […] Likewise, saturation of the fatty acid fragment in 39 causes ca. 14-fold decrease in β5 inhibition. This preliminary series of analogs highlighted that the macrocyclic hydroxylation, fatty acid unsaturation, and terminal lipid functionality are critical for potent proteasome inhibitory activity.
Cellular assays were performed with human multiple myeloma cell line RPMI 8226. First, relative inhibition of proteasome subunits β5 and β2 for all analogs and the natural product was measured at 30 nM compound concentration. Following incubation of the analogs in cell culture for 6 hours, cells were lysed and fluorogenic subunit-specific peptide substrates Suc-LLVY-AMC (β5) or Ac-RLR-AMC (β2) were incubated with the lysates, and fluorescence readings provided relative proteasome activity levels with respect to DMSO (FIG. 6A). Next, cytotoxicity screening was performed at 30 nM and 100 nM concentrations for better coverage of dynamic range (FIG. 6B). […] Therefore, the improved cytotoxicity of phenyl cepafungin 50 likely results from a more pronounced loss of β5 function in RPMI 8226 cells. This drastic increase in proteasome inhibition may be due to pi-stacking of the lipid tail phenyl ring with the β6 subunit residues Tyr106 and/or Tyr5. The β2 subunit-bound natural product has residues Tyr102 and Phe103 on the adjacent β3 subunit oriented further away from the terminal lipid methyl groups, and presumably would not facilitate pi-stacking to the extent possible at the adjacent β6 subunit (see FIG. 4, FIG. 9). […]
RPMI 8226 cells were seeded in a 6-well plate (1,000,000 cells/well) in cell culture media supplemented with indicated compounds (1,000× stock in DMSO) or DMSO and cultured for 6 hours. […] The plates were incubated at 37° C. for one hour and fluorescence was read at A360ex/A460em. […]

RPMI 8226 cells [2] = assay: RPMI8226 cytotoxicity screening (WST-1); format: cell-based, human; settings: for cytotoxicity / activity compared with the natural product, in words: 30 nM and 100 nM compound concentration; for potency compared with parent natural product 1 in screening (FIG. 6A, 6B): 30 nM and 100 nM, cytotoxicities track with proteasome inhibition at 30 nM
Method: Cellular assays were performed with human multiple myeloma cell line RPMI 8226. First, relative inhibition of proteasome subunits β5 and β2 for all analogs and the natural product was measured at 30 nM compound concentration. Following incubation of the analogs in cell culture for 6 hours, cells were lysed and fluorogenic subunit-specific peptide substrates Suc-LLVY-AMC (β5) or Ac-RLR-AMC (β2) were incubated with the lysates, and fluorescence readings provided relative proteasome activity levels with respect to DMSO (FIG. 6A). Next, cytotoxicity screening was performed at 30 nM and 100 nM concentrations for better coverage of dynamic range (FIG. 6B). […] Therefore, the improved cytotoxicity of phenyl cepafungin 50 likely results from a more pronounced loss of β5 function in RPMI 8226 cells. This drastic increase in proteasome inhibition may be due to pi-stacking of the lipid tail phenyl ring with the β6 subunit residues Tyr106 and/or Tyr5. The β2 subunit-bound natural product has residues Tyr102 and Phe103 on the adjacent β3 subunit oriented further away from the terminal lipid methyl groups, and presumably would not facilitate pi-stacking to the extent possible at the adjacent β6 subunit (see FIG. 4, FIG. 9). […] These combined modifications were made in hopes that the effects of both substitutions would be additive.
[…] Toxicity was determined using the WST-1 assay (Roche) according to the protocol of the manufacturer. (n=3)

Row | SMILES | cytotoxicity / activity compared with the natural product, in words (RPMI 8226 cells [2]) | further results
1 | CC(C)[C@H]1/C=C/C(=O)NCC[C@H](O)C[C@H](NC(=O)[C@@H](NC(=O)/C=C/C=C/CCCCCc2ccccc2)[C@@H](C)O)C(=O)N1 [S39, (2E,4E)-N-((2S,3R)-3-hydroxy-1-(((5S,8S,10S,E)-10-hydroxy-5-isopropyl-2,7-dioxo-1,6-diazacyclododec-3-en-8-yl)amino)-1-oxobutan-2-yl)-10-phenyldeca-2,4-dienamide] |  | EC50 (RPMI 8226 cells [1]; Homo sapiens, WST-1): 4.5 nM; cytotoxicity EC50 compared with natural product and 50, in words (RPMI 8226 cells [1]): significantly more potent than the natural product; also recorded: its cytotoxicity did not surpass that of 50
2 | CC(C)CCCCC/C=C/C=C/C(=O)N[C@H](C(=O)N[C@H]1CCCCNC(=O)/C=C/[C@H](C)NC1=O)[C@@H](C)O [compound 38, Desoxycepafungin] |  | fold higher IC50 than 1 (proteasome subunit β5): ca. 11 fold
3 | CC(C)CCCCC/C=C/C=C/C(=O)N[C@H](C(=O)N[C@H]1C[C@H](O)CCNC(=O)/C=C/[C@H](C)NC1=O)[C@@H](C)O [compound 40, (2E,4E)-N-((2S,3R)-3-hydroxy-1-(((5S,8S,10R,E)-10-hydroxy-5-methyl-2,7-dioxo-1,6-diazacyclododec-3-en-8-yl)amino)-1-oxobutan-2-yl)-11-methyldodeca-2,4-dienamide] | nearly inactive at both concentrations | 
4 | CC(C)CCCCC/C=C/C=C/C(=O)N[C@H](C(=O)N[C@@H]1C(=O)N[C@@H](C)/C=C/C(=O)NCCC[C@@H]1O)[C@@H](C)O [compound 41, (2E,4E)-N-((2S,3R)-3-hydroxy-1-(((5S,8S,9S,E)-9-hydroxy-5-methyl-2,7-dioxo-1,6-diazacyclododec-3-en-8-yl)amino)-1-oxobutan-2-yl)-11-methyldodeca-2,4-dienamide] | nearly inactive at both concentrations | 
5 | CC(C)CCCCC/C=C/C=C/C(=O)N[C@H](C(=O)N[C@H]1CC(=O)CCNC(=O)/C=C/[C@H](C)NC1=O)[C@@H](C)O [compound 42, (2E,4E)-N-((2S,3R)-3-hydroxy-1-(((5S,8S,E)-5-methyl-2,7,10-trioxo-1,6-diazacyclododec-3-en-8-yl)amino)-1-oxobutan-2-yl)-11-methyldodeca-2,4-dienamide] | potency approaching that of the natural product | 
6 | CC(C)CCCCC/C=C/C=C/C(=O)N[C@H](C(=O)N[C@H]1C[C@@H](O)CCNC(=O)/C=C/[C@H](C(C)C)NC1=O)[C@@H](C)O [compound 43, (2E,4E)-N-((2S,3R)-3-hydroxy-1-(((5S,8S,10S,E)-10-hydroxy-5-isopropyl-2,7-dioxo-1,6-diazacyclododec-3-en-8-yl)amino)-1-oxobutan-2-yl)-11-methyldodeca-2,4-dienamide] | slightly greater cytotoxicity than the natural product | potency compared with parent natural product 1 in screening (FIG. 6A, 6B) (RPMI 8226 cells [2]): more potent than the parent natural product 1
7 | CC[C@H](NC(=O)/C=C/C=C/CCCCCC(C)C)C(=O)N[C@H]1C[C@@H](O)CCNC(=O)/C=C/[C@H](C)NC1=O [compound 44, (2E,4E)-N—((S)-1-(((5S,8S,10S,E)-10-hydroxy-5-methyl-2,7-dioxo-1,6-diazacyclododec-3-en-8-yl)amino)-1-oxobutan-2-yl)-11-methyldodeca-2,4-dienamide] | Thr residue next to the cepafungin macrocycle appears to be favored over the ethyl sidechain of desoxy-Thr analog 44 | 
8 | CC(C)CCCCC/C=C/C=C/C(=O)N[C@H](C(=O)N[C@H]1C[C@@H](O)CCNC(=O)/C=C/[C@H](C)NC1=O)[C@H](O)c1ccccc1 [compound 45, (2E,4E)-N-((1R,2S)-1-hydroxy-3-(((5S,8S,10S,E)-10-hydroxy-5-methyl-2,7-dioxo-1,6-diazacyclododec-3-en-8-yl)amino)-3-oxo-1-phenylpropan-2-yl)-11-methyldodeca-2,4-dienamide] | substantially weaker | 
9 | CC(C)CCCCC/C=C/C=C/C(=O)N[C@H](C(=O)N[C@H]1C[C@@H](O)CCNC(=O)/C=C/[C@H](C)NC1=O)[C@H](O)C(C)C [compound 46, (2E,4E)-N-((2S,3R)-3-hydroxy-1-(((5S,8S,10S,E)-10-hydroxy-5-methyl-2,7-dioxo-1,6-diazacyclododec-3-en-8-yl)amino)-4-methyl-1-oxopentan-2-yl)-11-methyldodeca-2,4-dienamide] | approached the potency of the natural product | 
10 | C[C@H]1/C=C/C(=O)NCC[C@H](O)C[C@H](NC(=O)[C@@H](NC(=O)/C=C/C=C/CCCCCC(C)(C)C)[C@@H](C)O)C(=O)N1 [compound 47, (2E,4E)-N-((2S,3R)-3-hydroxy-1-(((5S,8S,10S,E)-10-hydroxy-5-methyl-2,7-dioxo-1,6-diazacyclododec-3-en-8-yl)amino)-1-oxobutan-2-yl)-11,11-dimethyldodeca-2,4-dienamide] | improved cytotoxicity relative to 1 | potency compared with parent natural product 1 in screening (FIG. 6A, 6B) (RPMI 8226 cells [2]): more potent than the parent natural product 1
11 | C[C@H]1/C=C/C(=O)NCC[C@H](O)C[C@H](NC(=O)[C@@H](NC(=O)/C=C/C=C/CCCCCC2CCCC2)[C@@H](C)O)C(=O)N1 [compound 48, (2E,4E)-10-cyclopentyl-N-((2S,3R)-3-hydroxy-1-(((5S,8S,10S,E)-10-hydroxy-5-methyl-2,7-dioxo-1,6-diazacyclododec-3-en-8-yl)amino)-1-oxobutan-2-yl)deca-2,4-dienamide] | improved cytotoxicity relative to 1 | potency compared with parent natural product 1 in screening (FIG. 6A, 6B) (RPMI 8226 cells [2]): more potent than the parent natural product 1
12 | C[C@H]1/C=C/C(=O)NCC[C@H](O)C[C@H](NC(=O)[C@@H](NC(=O)/C=C/C=C/CCCCCC2CCCCC2)[C@@H](C)O)C(=O)N1 [compound 49, (2E,4E)-10-cyclohexyl-N-((2S,3R)-3-hydroxy-1-(((5S,8S,10S,E)-10-hydroxy-5-methyl-2,7-dioxo-1,6-diazacyclododec-3-en-8-yl)amino)-1-oxobutan-2-yl)deca-2,4-dienamide] | roughly similar activity as the natural product | 
13 | C[C@H]1/C=C/C(=O)NCC[C@H](O)C[C@H](NC(=O)[C@@H](NC(=O)/C=C/C=C/CCCCCC(F)(F)F)[C@@H](C)O)C(=O)N1 [compound 51, (2E,4E)-11,11,11-trifluoro-N-((2S,3R)-3-hydroxy-1-(((5S,8S,10S,E)-10-hydroxy-5-methyl-2,7-dioxo-1,6-diazacyclododec-3-en-8-yl)amino)-1-oxobutan-2-yl)undeca-2,4-dienamide] | essentially inactive at both concentrations tested | 
